In publication PMC9026428, “New Peptide Based Fluconazole Conjugates with Expanded Molecular Targets” (Pharmaceutics, 2022):
Read-outs that look alike come from different tables or passages of the source. No end group written: not given here.

Legend:
[1] = cited from earlier work
Description: Fluconazole is water-soluble, safe for patients even at a high daily dose ([…]), can be applied either intravenously or orally, and has a beneficial pharmacokinetic profile and broad spectrum of activity.

C. albicans SC5314 = experiment: Membrane permeabilization assay by propidium iodide uptake (flow cytometry, fluorescence microscopy); format: cell-based, Candida albicans
Description: Suspensions of C. albicans SC5314 were prepared by taking one loop of pure culture growth from 24 h YPD agar plates into RPMI 1640 medium and adjusting optical density to 0.1 at 660 nm wavelength. […] The cell suspensions were then treated for 0.5, 2, 4, 6, and 24 h at 37 °C with continuous agitation (180 rpm). The cells were then centrifuged and resuspended in 200 µL of PBS buffer (pH 7.4). Subsequently, cells were treated with propidium iodide (1 mg/mL, final concentration) and incubated for 30 min at room temperature in the dark. Cellular fluorescence was visualized using lens 20×, using Olympus Fluorescence Microscope BX60 (Olympus, Tokyo, Japan). The images were also post-processed utilizing cell Sens program. The fluorescence intensity emitted by DNA-bound propidium iodide was measured using a flow cytometer (Merck Millipore guava easyCyte 8, Darmstadt, Germany). Data were obtained from at least two independent experiments.

MTT cytotoxicity assay [2] = conditions: human
Description: (§1) The assessment of antifungal potential of synthesized agents was carried out using four reference strains (C. albicans ATCC 10231, C. albicans SC5314, C. glabrata DSM […] and C. krusei DSM […]) and six clinical isolates of fluconazole-resistant C. albicans that were provided by the Hospital of Medical University of Gdansk, Poland. Moreover, four C. albicans isolates, assigned as B3, B4, Gu4 and Gu5, were used for investigation whether the synthesized fluconazole derivatives were effectively removed from the yeast cells by the drug efflux transporters, as in the case of fluconazole. These strains were kindly provided by Prof. Joachim Morschhäuser from University of Würzburg (Würzburg, Germany). Strains Gu4 and B3 were fluconazole-sensitive isolates obtained from early infection episodes, while Gu5 and B4 were the corresponding fluconazole-resistant isolates obtained from later episodes in the same patients treated with fluconazole. The lack of susceptibility of the Gu5 strain to fluconazole was a consequence of overexpression of CDR1/2 genes encoding ABC transporters, whereas the resistance of B4 strain was caused by overexpression of the MDR1 gene encoding a membrane transport protein of the major facilitator superfamily (MFS). All of these Candida spp. strains were maintained on YPD agar plates (1% (w/v) yeast extract, 2% (w/v) peptone, 2% (w/v) glucose, 2% (w/v) agar) at 30 °C for 16–24 h. For all of the assays aimed at assessing the antifungal potential of the synthesized agents, the yeasts were cultivated at 37 °C in RPMI 1640 medium (with L-glutamine, without sodium bicarbonate, Sigma-Aldrich, Darmstadt, Germany)) buffered to a pH of 7.0 with 0.165 M morpholinepropanesulfonic acid (MOPS) buffer (Sigma-Aldrich). In this study, we used the human foreskin fibroblast cell line Hs27 (ATCC CRL 1634TM) and the human endothelial cell line HUVEC (C2519A), purchased from Lonza Group AG, (Basel, Switzerland). The Hs27 cells were maintained in cell media consisting of Dulbecco’s modified Eagles medium (DMEM), (Corning, Arizona, USA) with 10% fetal bovine serum (FBS), (Corning, Port Elizabeth, South Africa), 1% penicillin/streptomycin (Sigma-Aldrich Inc., Darmstadt, Germany), and 1% L-glutamine (Corning, Arizona, USA). The human endothelial cell line was maintained in cell media consisting of Endothelial Cell Growth Medium-2 Single Quots Kit (Lonza, USA). Both cell lines were cultured in an incubator at 37 °C and 5% CO2.
(§2) Hs27 and HUVEC mammalian cell lines were cultured as mentioned above. Once cell lines were about 80% confluent, cells were counted by a hemacytometer (Hausser Scientific, Horsham, PA, USA) and plated in 96-well microtiter plates at concentrations of 4500 cells per well for Hs27 and 2000 cells per well for HUVEC. Cells were allowed to attach overnight. […] The final concentration of DMSO was ensured to be around 1% in all experiments. Cells were incubated with studied compounds for 72 h at 37 °C and 5% CO2. After incubation, 20 µL of MTT solution in PBS (4 mg/mL) was added to all wells and incubated further for 3 h at 37 °C. Formed formazan crystals were dissolved in 150 µL DMSO, and absorbance was measured using an Asys UVM340 multi-well plate reader at λ = 540 nm. Cytotoxicity was determined compared to drug-free control. All experiments were performed in biological triplicates.

[3] = tested on: HUVEC cells (human umbilical venous endothelial primary cells); experiment: MTT cytotoxicity assay
Description: as §1, §2

Candida albicans 604 = experiment: microbe, parasite or virus in culture; conditions: Candida albicans, 604, 24 h
Description: as §1
(§3) Antifungal activity of the tested compounds against yeast cells was determined in 96-well plates as described in the CLSI document M27-A3 [39], with minor modifications (CLSI, 2008). […] The plates were incubated for 24 h at 37 °C. Each test was performed in triplicate. The final concentration of DMSO was ensured to be around 1% in all experiments.
(§4) For determination of minimum fungicidal concentrations (MFC), small aliquots of suspensions (around 10 μL) from each well were transferred using the pipette to YPD agar plates without inhibitors and incubated for 24 h at 37 °C.

[4] = tested on: Candida albicans ATCC 10231; experiment: microbe, parasite or virus in culture; conditions: Candida albicans, ATCC10231, 24 h; for MIC50 / MIC90: pH 7
Description: as §1, §3, §4

Candida albicans SC 5314 = experiment: microbe, parasite or virus in culture; conditions: Candida albicans, SC5314, 24 h; for MIC50 / MIC90: pH 7
Description: as §1, §3, §4

Candida krusei DSM 11226 = experiment: microbe, parasite or virus in culture; conditions: Pichia kudriavzevii, DSM11226, 24 h; for MIC50 / MIC90: pH 7
Description: as §1, §3, §4

Candida albicans 574 = experiment: microbe, parasite or virus in culture; conditions: Candida albicans, 574, 24 h
Description: as §1, §3, §4

Candida albicans B3 = experiment: microbe, parasite or virus in culture; conditions: Candida albicans, B3, 24 h
Description: as §1, §3, §4

Candida albicans Gu5 = experiment: microbe, parasite or virus in culture; conditions: Candida albicans, GU5, 24 h
Description: as §1, §3, §4

Candida albicans Gu4 = experiment: microbe, parasite or virus in culture; conditions: Candida albicans, GU4, 24 h
Description: as §1, §3, §4

Candida albicans 48 = experiment: microbe, parasite or virus in culture; conditions: Candida albicans, 48, 24 h
Description: as §1, §3, §4

[5] = tested on: Candida glabrata DSM 6128; experiment: microbe, parasite or virus in culture; conditions: Nakaseomyces glabratus, DSM6128, 24 h; for MIC50 / MIC90: pH 7
Description: as §1, §3, §4

Candida albicans B4 = experiment: microbe, parasite or virus in culture; conditions: Candida albicans, B4, 24 h
Description: as §1, §3, §4

Candida albicans 190 = experiment: microbe, parasite or virus in culture; conditions: Candida albicans, 190, 24 h
Description: as §1, §3, §4

Candida albicans 247 = experiment: microbe, parasite or virus in culture; conditions: Candida albicans, 247, 24 h
Description: as §1, §3, §4

Candida albicans 138 = experiment: microbe, parasite or virus in culture; conditions: Candida albicans, 138, 24 h
Description: as §1, §3, §4

MTT cytotoxicity assay [6] = conditions: human, Hs27 cells (human foreskin fibroblast cell line)
Description: as §1, §2

[7] = tested on: Hs27 cells (human foreskin fibroblast cell line); experiment: MTT cytotoxicity assay
Description: as §1, §2

[8] = tested on: Candida spp. strains tested; experiment: Antifungal activity against the whole panel of strains tested; format: cell-based; conditions: Candida; all strains of Table 2
Description: Antifungal activity of the tested compounds against yeast cells was determined in 96-well plates as described in the CLSI document M27-A3 [39], with minor modifications (CLSI, 2008). Suspensions of the microorganisms were prepared by taking one loop of pure culture into sterile water and adjusting optical density to 0.1 at 660 nm wavelength and further 50-fold dilution in RPMI 1640 medium, resulting in cell concentration of approximately 2 × 10^4 CFU/mL [21]. Then, 100 μL of cells were added to the wells of a 96-well microtiter plate that contained 16–500 μM tested compounds and 16–500 μM of FLC or 0.2–62 μM AmB. The plates were incubated for 24 h at 37 °C. Each test was performed in triplicate. […] The MIC90 was defined as the lowest concentration of drug showing no visible growth; MIC50 was defined as the concentration that yielded at least 50% growth inhibition when compared with the growth control well.

C. tropicalis (clinical) = conditions: RPMI-1640, 200 – 0.4 μg/mL range
Description: (§5) The selective activities of the FLC-conjugates were calculated according to the following formula
(§6) (1 picture or pasted object on this page, not shown here)

C. glabrata DSM 11226 = conditions: C. glabrata DSM 11226, RPMI-1640, 200 – 0.4 μg/mL range
Description: as §5, §6

C. krusei DSM 6128 = conditions: C. krusei DSM 6128, RPMI-1640, 200 – 0.4 μg/mL range
Description: as §5, §6

C. albicans ATCC 10231 = conditions: C. albicans ATCC 10231, RPMI-1640, 200 – 0.4 μg/mL range
Description: as §5, §6

CCC(C)n1ncn(-c2ccc(N3CCN(c4ccc(OCC5COC(Cn6cncn6)(c6ccc(Cl)cc6Cl)O5)cc4)CC3)cc2)c1=O (centres unmarked) [itraconazole]
2–4%: incidence rate of azole-induced liver injury ([1]; in vivo)

OC(Cn1cncn1)(Cn1cncn1)c1ccc(F)cc1F [FLC, fluconazole]
2,83%: Dead (%), PI uptake by flow cytometry (C. albicans SC5314; SC5314, 6 h)
< 8 µM: MIC50 [4] | MIC90 [4] | MIC50 (Candida albicans SC 5314) | MIC90 (Candida albicans SC 5314)
> 250 µM: MIC90 (Candida albicans 604; pH 7) | MIC90 (Candida albicans 574; pH 7) | MIC90 (Candida albicans Gu5; pH 7) | MIC90 (Candida albicans 48; pH 7) | MIC90 (Candida albicans 190; pH 7) | MIC90 (Candida albicans 247; pH 7) | MIC90 (Candida albicans 138; pH 7)
No symptoms of cell membrane disruption: cell membrane disruption (PI uptake), in words (C. albicans SC5314; C. albicans SC5314, 8 × MIC (62 µM), 4 or 6 h)
15 µM: MIC90 (Candida albicans B3; pH 7)
250 µM: MIC90 [5]
62 µM: MIC50 [5] | MIC90 (Candida albicans B4; pH 7)
> 100 µM: IC50 at 72 h (MTT cytotoxicity assay [2]) | IC50 at 72 h (MTT cytotoxicity assay [6])
97,2%: Live (%), PI uptake by flow cytometry (C. albicans SC5314; SC5314, 6 h)
97,5%: Live (%), PI uptake by flow cytometry (C. albicans SC5314; SC5314, 4 h)
1%: incidence rate of azole-induced liver injury ([1]; in vivo)
70 µM: MIC50 (Candida krusei DSM 11226)
2,50%: Dead (%), PI uptake by flow cytometry (C. albicans SC5314; SC5314, 4 h)
125 µM: MIC90 (Candida krusei DSM 11226)
>100 µM: In vitro cytotoxicity IC90 ± SEM [3] | In vitro cytotoxicity IC90 ± SEM [7]
31 µM: MIC90 (Candida albicans Gu4; pH 7)

C[C@@H]1[C@H](O)[C@@H](C)/C=C/C=C/C=C/C=C/C=C/C=C/C=C/[C@H](O[C@@H]2O[C@H](C)[C@@H](O)[C@H](N)[C@@H]2O)C[C@@H]2O[C@](O)(C[C@@H](O)C[C@@H](O)[C@H](O)CC[C@@H](O)C[C@@H](O)CC(=O)O[C@H]1C)C[C@H](O)[C@H]2C(=O)O [Amphotericin B (AmpB), Amphotericin B, reference compound]
< 0.1 µM: MFC (Candida albicans 604) | MIC50 (Candida albicans 604; pH 7) | MIC90 (Candida albicans 604; pH 7) | MFC [4] | MIC50 [4] | MIC90 [4] | MFC (Candida albicans SC 5314) | MIC50 (Candida albicans SC 5314) | MIC90 (Candida albicans SC 5314) | MFC (Candida krusei DSM 11226) | MIC50 (Candida krusei DSM 11226) | MIC90 (Candida krusei DSM 11226) | MFC (Candida albicans 574) | MIC50 (Candida albicans 574; pH 7) | MIC90 (Candida albicans 574; pH 7) | MFC (Candida albicans B3) | MIC50 (Candida albicans B3; pH 7) | MIC90 (Candida albicans B3; pH 7) | MFC (Candida albicans Gu5) | MIC50 (Candida albicans Gu5; pH 7) | MIC90 (Candida albicans Gu5; pH 7) | MFC (Candida albicans Gu4) | MIC50 (Candida albicans Gu4; pH 7) | MIC90 (Candida albicans Gu4; pH 7) | MFC (Candida albicans 48) | MIC50 (Candida albicans 48; pH 7) | MIC90 (Candida albicans 48; pH 7) | MFC [5] | MIC50 [5] | MIC90 [5] | MFC (Candida albicans B4) | MIC50 (Candida albicans B4; pH 7) | MIC90 (Candida albicans B4; pH 7) | MFC (Candida albicans 190) | MIC50 (Candida albicans 190; pH 7) | MIC90 (Candida albicans 190; pH 7) | MFC (Candida albicans 247) | MIC50 (Candida albicans 247; pH 7) | MIC90 (Candida albicans 247; pH 7) | MFC (Candida albicans 138) | MIC50 (Candida albicans 138; pH 7) | MIC90 (Candida albicans 138; pH 7) | MIC [8]

CC(=O)N1CCN(c2ccc(OCC3COC(Cn4ccnc4)(c4ccc(Cl)cc4Cl)O3)cc2)CC1 (centres unmarked) [ketoconazole]
2–10%: incidence rate of azole-induced liver injury [1]

CFQWKRAMRKVR-NH2 [HLopt2-NH2]
250 µg/mL: MIC50 (C. krusei DSM 6128) | MIC90 (C. krusei DSM 6128)
> 250 µg/mL: MIC50 (C. tropicalis (clinical)) | MIC90 (C. tropicalis (clinical)) | MIC50 (C. glabrata DSM 11226) | MIC90 (C. glabrata DSM 11226) | MIC50 (C. albicans ATCC 10231)
